Values of other authors in PMC7904743, “WIDOCK: a reactive docking protocol for virtual screening of covalent inhibitors” (Journal of Computer-Aided Molecular Design, 2021).
Like-named read-outs stand apart in the source and are kept apart here.

Assays:
[1] = test system: OTUB2; conditions: experimental actives if % labeling higher than 50%; cited from earlier work
[2] = test system: NUDT7; conditions: protein labeling at 200 μM; experimental actives if % labeling higher than 50%; cited from earlier work
[3] = thiol reactivity, cited from earlier work
[4] = natural log of average rate constant k
[5] = natural logarithm of average rate constant

SMILES | OTUB2 % labeling [1] [%] | NUDT7 % labeling [2] [%] | ln(avg k) [3, 4] | ln(avg k) [3, 5]
O=C(CCl)Nc1nc(-c2c[nH]c3ccccc23)cs1 [PCM-0102233, O=C(CCl)Nc1nc(-c2c[nH]c3ccccc23)cs1] | 25 | 26 | -15.707 | -15.707
COc1ccccc1NC(=O)CCl [PCM-0102236, COc1ccccc1NC(=O)CCl] | 28 | 0 | -16.359 | -16.359
O=C(CCl)N1CCN(S(=O)(=O)c2ccc(F)cc2)CC1 [PCM-0102237, O=C(CCl)N1CCN(S(=O)(=O)c2ccc(F)cc2)CC1] | 0 | 6 | -16.014 | -16.014
O=C(CCl)Nc1ccc(F)c([N+](=O)[O-])c1 [PCM-0102238, O=C(CCl)Nc1ccc(F)c([N+](=O)[O-])c1] | 32 | 23 | -15.369 | -15.369
O=C(CCl)N1CCN(c2cccc(C(F)(F)F)c2)CC1 [PCM-0102239, O=C(CCl)N1CCN(c2cccc(C(F)(F)F)c2)CC1] | 0 | 8 | -15.673 | -15.673
O=C(CCl)N1CCN(S(=O)(=O)c2cccs2)CC1 [PCM-0102241, O=C(CCl)N1CCN(S(=O)(=O)c2cccs2)CC1] | 0 | 12 | -15.262 | -15.262
O=C(CCl)Nc1nccs1 [PCM-0102242, O=C(CCl)Nc1nccs1] | 0 | 0 | -16.213 | -16.213
O=C(CCl)N1CCN(Cc2cccs2)CC1 [PCM-0102243, O=C(CCl)N1CCN(Cc2cccs2)CC1] | 0 | 8 | -15.851 | -15.851
NC(=O)C1CN(C(=O)CCl)c2ccccc2O1 (stereo not drawn) [PCM-0102245, NC(=O)C1CN(C(=O)CCl)c2ccccc2O1] | 15 | 12 | -15.513 | -15.513
O=C(CCl)Nc1cc(F)ccc1C(=O)O [PCM-0102247, O=C(CCl)Nc1cc(F)ccc1C(=O)O] | 0 | 0 | -16.882 | -16.882
Cc1ccc(C)c(-n2nc(C)cc2NC(=O)CCl)c1 [PCM-0102249, Cc1ccc(C)c(-n2nc(C)cc2NC(=O)CCl)c1] | 43 | 0 | -15.689 | -15.689
O=C(CCl)NC1CCCC1 [PCM-0102250, O=C(CCl)NC1CCCC1] | 0 | 0 | -16.419 | -16.419
CC1CCC(C#N)(N(C)C(=O)CCl)CC1 (stereo not drawn) [PCM-0102251, CC1CCC(C#N)(N(C)C(=O)CCl)CC1] | 0 | 5 | -15.448 | -15.448
N#Cc1oc2ccccc2c1NC(=O)CCl [PCM-0102252, N#Cc1oc2ccccc2c1NC(=O)CCl] | 86 | 37 | -15.605 | -15.605
COc1ccc(N2CCN(C(=O)CCl)CC2)cc1 [PCM-0102254, COc1ccc(N2CCN(C(=O)CCl)CC2)cc1] | 0 | 0 | -15.625 | -15.625
CCOC(=O)N1CCC(NC(=O)CCl)CC1 [PCM-0102255, CCOC(=O)N1CCC(NC(=O)CCl)CC1] | 24 | 0 | -15.985 | -15.985
CC(NC(=O)CCl)c1ccccc1Br (stereo not drawn) [PCM-0102256, CC(NC(=O)CCl)c1ccccc1Br] | 29 | 19 | -16.021 | -16.021
O=C(CCl)N1CCN(C(=O)Nc2ccccc2)CC1 [PCM-0102257, O=C(CCl)N1CCN(C(=O)Nc2ccccc2)CC1] | 0 | 7 | -15.051 | -15.051
O=C(CCl)Nc1cc(Cl)ccc1-n1cncn1 [PCM-0102258, O=C(CCl)Nc1cc(Cl)ccc1-n1cncn1] | 0 | 21 | -15.839 | -15.839
CN(CC(=O)NC(C)(C)C)C(=O)CCl [PCM-0102259, CN(CC(=O)NC(C)(C)C)C(=O)CCl] | 0 | 0 | -16.044 | -16.044
Cc1c(C#N)c(NC(=O)CCl)n(-c2ccccc2)c1C [PCM-0102261, Cc1c(C#N)c(NC(=O)CCl)n(-c2ccccc2)c1C] | 9 | 30 | -16.038 | -16.038

SMILES | OTUB2 % labeling [1] [%] | NUDT7 % labeling [2] [%] | ln(avg k) [3, 4] | ln(avg k) [3, 5]
Cc1nc(-c2cccc(NC(=O)CCl)c2)cs1 [PCM-0102262, Cc1nc(-c2cccc(NC(=O)CCl)c2)cs1] | 63 | 0 | -15.670 | -15.670
CC(C)C(C#N)N1CCN(C(=O)CCl)CC1 (stereo not drawn) [PCM-0102263, CC(C)C(C#N)N1CCN(C(=O)CCl)CC1] | 31 | 17 | -14.716 | -14.716
Cc1csc(N(C(=O)CCl)c2ccccc2)n1 [PCM-0102265, Cc1csc(N(C(=O)CCl)c2ccccc2)n1] | 6 | 19 | -15.232 | -15.232
O=C(CCl)N1c2ccccc2OCC1c1ccccc1 (stereo not drawn) [PCM-0102266, O=C(CCl)N1c2ccccc2OCC1c1ccccc1] | 0 | 11 | -16.335 | -16.335
CNC(=O)c1ccc(NC(=O)CCl)cc1 [PCM-0102267, CNC(=O)c1ccc(NC(=O)CCl)cc1] | 0 | 0 | -15.048 | -15.048
O=C(CCl)N1CCN(Cc2cccc(Cl)c2)CC1 [PCM-0102269, O=C(CCl)N1CCN(Cc2cccc(Cl)c2)CC1] | 19 | 0 | -15.481 | -15.481
Cc1ccc(C(C)NC(=O)CCl)cc1C (stereo not drawn) [PCM-0102270, Cc1ccc(C(C)NC(=O)CCl)cc1C] | 51 | 0 | -16.558 | -16.558
CC(C)N(C(=O)CCl)c1ccccc1 [PCM-0102272, CC(C)N(C(=O)CCl)c1ccccc1] | 0 | 22 | -15.780 | -15.780
CC(=O)c1ccc(N2CCN(C(=O)CCl)CC2)c(F)c1 [PCM-0102273, CC(=O)c1ccc(N2CCN(C(=O)CCl)CC2)c(F)c1] | 0 | 20 | -15.374 | -15.374
O=C(CCl)Nc1cccnc1Cl [PCM-0102274, O=C(CCl)Nc1cccnc1Cl] | 0 | 0 | -16.315 | -16.315
CC(NC(=O)CCl)c1cccc2ccccc12 (stereo not drawn) [PCM-0102275, CC(NC(=O)CCl)c1cccc2ccccc12] | 73 | 32 | -16.435 | -16.435
O=C(CCl)Nc1ccc(OC(F)(F)F)cc1 [PCM-0102276, O=C(CCl)Nc1ccc(OC(F)(F)F)cc1] | 36 | 24 | -15.893 | -15.893
O=C(CCl)N1CCN(Cc2ccc(Cl)s2)CC1 [PCM-0102277, O=C(CCl)N1CCN(Cc2ccc(Cl)s2)CC1] | 9 | 0 | -15.648 | -15.648
O=C(CCl)Nc1ccc(I)cc1 [PCM-0102278, O=C(CCl)Nc1ccc(I)cc1] | 24 | 9 | -15.784 | -15.784
CNC(=O)CNC(=O)CCl [PCM-0102279, CNC(=O)CNC(=O)CCl] | 10 | 0 | -16.473 | -16.473
O=C(CCl)NCc1cccs1 [PCM-0102280, O=C(CCl)NCc1cccs1] | 22 | 0 | -16.889 | -16.889
O=C(CCl)N1CCN(S(=O)(=O)c2ccccc2F)CC1 [PCM-0102281, O=C(CCl)N1CCN(S(=O)(=O)c2ccccc2F)CC1] | 0 | 14 | -15.235 | -15.235
CC(=O)c1ccccc1NC(=O)CCl [PCM-0102282, CC(=O)c1ccccc1NC(=O)CCl] | 0 | 0 | -16.331 | -16.331
CC(=O)c1cccc(N2Cc3ccccc3C2=NC(=O)CCl)c1 [PCM-0102283, CC(=O)c1cccc(N2Cc3ccccc3C2=NC(=O)CCl)c1] | 0 | 0 | -16.303 | -16.303
O=C(CCl)Nc1cc(F)ccc1F [PCM-0102284, O=C(CCl)Nc1cc(F)ccc1F] | 28 | 0 | -15.941 | -15.941
CN(C)S(=O)(=O)c1ccc2c(c1)CCCN2C(=O)CCl [PCM-0102285, CN(C)S(=O)(=O)c1ccc2c(c1)CCCN2C(=O)CCl] | 0 | 0 | -15.789 | -15.789
